Data as given in patent publication US5955423A (priority 1995, dated 1999).
Several values for one entry are separate records, joined by “and”; a condition that tells them apart may be missing. Equal entries are not always repeated. Where two headings read alike, the source gives them in different places.

Columns and labels:
[1] = system: KB (human nasopharyngeal carcinoma) cell line; experiment: Cytotoxicity against KB cell line; type: cell-based
[2] = system: LoVo (human colon-carcinoma) cell line; experiment: Cytotoxicity against LoVo cell line; type: cell-based
[3] = system: SKOV3 (human ovarian carcinoma) cell line; experiment: Cytotoxicity against SKOV3 cell line; conditions: Table 2
[4] = system: murine leukemia (L1210 or P388), murine solid tumor, human solid tumor and low malignancy fibroblast (LML) cells; conditions: for Differential in Zone Units, Corbett Assay: μg/disk as for E3; for Type of Cytotoxicity, Corbett Assay: μg/disk: 1 12.5, 2 25, 3 25, 4 20, 5 2.9, 6 250, 8 30, 5-FU 2.5, VP-16 5, taxol 0.2, ^c selective against drug-sensitive and drug-resistant cell lines, ^d drug-sensitive cell lines only
[5] = system: Panc 03 (pancreatic ductal adenocarcinoma #03, P03); conditions: SC P03, 9 inj. IV
Description: Gross log kill is defined as T-C/3.2 Td where T is the median time in days for the tumors of the treated group to reach 750 mg, C is the median time in days for the tumors of the control group to reach 750 mg, and Td is the tumor volume doubling time.

SMILES | KB IC50 ([1]; Table 2) [ng/mL] | LoVo IC50 ([2]; Table 2) [ng/mL] | SKOV3 IC50 [3] [ng/mL] | other results
COc1c(Cl)cc(CC2NC(=O)C=CCC(C(C)C3OC3c3ccccc3)OC(=O)C(CC(C)C)OC(=O)C(C)CNC2=O)cc1Cl (stereo not drawn) [Cryptophycin 31] | 0.53 | 0.062 | 1.9 | 
CCCC1OC(=O)C(C)CNC(=O)C(Cc2ccc(OC)c(Cl)c2)NC(=O)C=CCC(C(C)C=Cc2ccccc2)OC1=O (stereo not drawn) [Cryptophycin 49] |  |  | 1.1 | 
CC(C)CC1OC(=O)C(C)CNC(=O)C(Cc2ccc(O)c(Cl)c2)NC(=O)C=CCC(C(C)C=Cc2ccccc2)OC1=O (stereo not drawn) [Cryptophycin 17] | 4.7 | 5.9 | 11 | 
COc1ccc(C[C@H]2NC(=O)CC(C[C@H](O)[C@H](C)/C=C/c3ccccc3)OC(=O)[C@H](CC(C)C)OC(=O)[C@H](C)CNC2=O)cc1Cl (stereo partly drawn) [Cryptophycin 26] | 19 | 9.8 | 95 | 
COc1ccc(CC2NC(=O)C=CCC(C(C)C(O)C(OC)c3ccccc3)OC(=O)C(CC(C)C)OC(=O)C(C)CNC2=O)cc1Cl (stereo not drawn) [Cryptophycin 9] |  |  |  | KB IC50 ([1]; Table 1): 15 ng/mL
COc1ccc(C[C@H]2NC(=O)/C=C/C[C@@H](C/C=C/c3ccccc3)OC(=O)[C@H](CC(C)C)OC(=O)[C@H](C)CNC2=O)cc1Cl [Cryptophycin 28] | 1.5 | 0.75 | 6.1 | 
COC(=O)[C@H](C)CNC(=O)[C@@H](Cc1ccc(OC)c(Cl)c1)NC(=O)/C=C/C[C@@H]1O[C@@H](c2ccccc2)[C@H](O)[C@H]1C [Cryptophycin 6] |  |  |  | KB IC50 ([1]; Table 1): ≥ 100 ng/mL; LoVo IC50 ([2]; Table 1): ≥ 100 ng/mL
COc1ccc(CC(NC(=O)C=CCC(O)C(C)C=Cc2ccccc2)C(=O)NCC(C)C(=O)O)cc1Cl (stereo not drawn) [Cryptophycin 14] |  |  |  | KB IC50 ([1]; Table 1): 1.8 ng/mL
COc1ccc(CC2NC(=O)C=CCC(C(C)C=Cc3ccccc3)OC(=O)C(C(C)C)OC(=O)C(C)CNC2=O)cc1Cl (stereo not drawn) [Cryptophycin 19] | 9.8 |  | 41 | 
COc1ccc(C[C@H]2NC(=O)/C=C/C[C@@H]([C@H](C)[C@H]3O[C@@H]3c3ccccc3)OC(=O)[C@H](CC(C)C)OC(=O)[C@H](C)CNC2=O)cc1 [Cryptophycin 2] |  | 0.021 | 0.18 | LoVo IC50 ([2]; Table 1): 0.0002 ng/mL; Differential in Zone Units, Corbett Assay [4]: > 400 Zone Units; Type of Cytotoxicity, Corbett Assay [4]: E/T
CCC(C)C1OC(=O)C(C)CNC(=O)C(Cc2ccc(OC)c(Cl)c2)NC(=O)C=CCC(C(C)C=Cc2ccccc2)OC1=O (stereo not drawn) [Cryptophycin 18] |  | 4.5 | 23 | 
CC[C@H](C)[C@@H]1OC(=O)[C@H](C)CNC(=O)[C@@H](Cc2ccc(OC)c(Cl)c2)NC(=O)/C=C/C[C@@H]([C@H](C)[C@H]2O[C@@H]2c2ccccc2)OC1=O [Cryptophycin 54] | 0.80 | 2.2 | 2.2 | 
COc1ccc(C[C@H]2NC(=O)/C=C/C[C@@H]([C@H](C)[C@H]3O[C@@H]3c3ccccc3)OC(=O)[C@H](CC(C)C)OC(=O)CCNC2=O)cc1 [Cryptophycin 24] | 0.12 | 0.095 | 0.3 | 
COc1ccc(C[C@@H](NC(=O)/C=C/C[C@@H]2O[C@@H](c3ccccc3)[C@H](O)[C@H]2C)C(=O)NC[C@@H](C)C(=O)O)cc1Cl [Cryptophycin 12] | 18 |  |  | KB IC50 ([1]; Table 1): ≥ 100 ng/mL
COc1ccc(C[C@H]2NC(=O)/C=C/C[C@@H]([C@H](C)/C=C/c3ccccc3)OC(=O)[C@H](CC(C)C)OC(=O)[C@H](C)CNC2=O)cc1 [Cryptophycin 4] |  | 2.5 | 21 | Differential in Zone Units, Corbett Assay [4]: > 400 Zone Units; Type of Cytotoxicity, Corbett Assay [4]: E/T
COc1ccc(C[C@H]2NC(=O)/C=C/C[C@@H]([C@H](C)/C=C/c3ccccc3)OC(=O)[C@H](CC(C)C)OC(=O)CCNC2=O)cc1Cl [Cryptophycin 29] |  | 0.49 | 3.4 | 
COc1cc([C@@H]2c3cc4c(cc3[C@@H](O[C@@H]3O[C@@H]5CO[C@@H](C)O[C@H]5[C@H](O)[C@H]3O)[C@H]3COC(=O)[C@H]23)OCO4)cc(OC)c1O [VP-16, etoposide, reference compound] |  |  |  | Differential in Zone Units, Corbett Assay [4]: 350 Zone Units and 530 Zone Units
COc1ccc(C[C@H]2NC(=O)/C=C/C[C@@H]([C@H](C)[C@H]3O[C@@H]3c3ccccc3)OC(=O)[C@H](CC(C)C)OC(=O)CCNC2=O)cc1Cl [Cryptophycin 21] |  | 0.0003 | 0.029 | % Body Wt. Loss at Nadir ([5]; Exp # 1813, 27 mg/kg TD): -11%; Cures ([5]; Exp # 1813, 27 mg/kg TD): 0/5; Log Kill ([5]; Exp # 1813, 27 mg/kg TD): None; T/C ([5]; Exp # 1813, 27 mg/kg TD): 61%; dead ([5]; Exp # 1813, 27 mg/kg TD): 1/5
COc1ccc(C[C@H]2NC(=O)C[C@H](O)C[C@@H]([C@H](C)/C=C/c3ccccc3)OC(=O)[C@H](CC(C)C)OC(=O)[C@H](C)CNC2=O)cc1Cl [Cryptophycin 30] | 11 |  |  | 
COc1ccc(CC(NC(=O)C=CCC2OC(c3ccccc3)C(O)C2C)C(=O)O)cc1Cl (stereo not drawn) [Cryptophycin 7] |  |  |  | KB IC50 ([1]; Table 1): ≥ 750 ng/mL; LoVo IC50 ([2]; Table 1): ≥ 480 ng/mL
COc1ccc(CC2NC(=O)C=CCC(CC3OC3c3ccccc3)OC(=O)C(CC(C)C)OC(=O)C(C)CNC2=O)cc1Cl (stereo not drawn) [Cryptophycin 40] | 9.0 | 1.0 |  | 
COc1ccc(C[C@H]2NC(=O)/C=C/C[C@@H]([C@H](C)[C@@H](O)[C@@H](O)c3ccccc3)OC(=O)[C@H](CC(C)C)OC(=O)[C@H](C)CNC2=O)cc1Cl [Cryptophycin 15] |  |  | 12 | 
CC(C)C[C@@H]1OC(=O)[C@H](C)CNC(=O)[C@@H](Cc2ccc(O)c(Cl)c2)NC(=O)/C=C/C[C@@H]([C@H](C)[C@H]2O[C@@H]2c2ccccc2)OC1=O [Cryptophycin 16] | 0.08 |  | 0.64 | % Body Wt. Loss at Nadir ([5]; Exp # 1878, 82 mg/kg TD): -1%; Cures ([5]; Exp # 1878, 82 mg/kg TD): 0/5; Log Kill ([5]; Exp # 1878, 82 mg/kg TD): None; T/C ([5]; Exp # 1878, 82 mg/kg TD): 89%
CCC[C@@H]1OC(=O)[C@H](C)CNC(=O)[C@@H](Cc2ccc(OC)c(Cl)c2)NC(=O)/C=C/C[C@@H]([C@H](C)[C@H]2O[C@@H]2c2ccccc2)OC1=O [Cryptophycin 50] |  |  | 0.2 | 
COc1ccc(C[C@@H](NC(=O)/C=C/C[C@H](O)[C@H](C)[C@@H](O)[C@@H](OC)c2ccccc2)C(=O)NC[C@@H](C)C(=O)O)cc1Cl [Cryptophycin 10] |  |  |  | KB IC50 ([1]; Table 1): ≥ 100 ng/mL; LoVo IC50 ([2]; Table 1): ≥ 100 ng/mL
